Laboratory results: patent US20190070124A1, “COMPOSITIONS OF CB2 RECEPTOR SELECTIVE AGONISTS FOR TREATMENT OF MENTAL DISORDERS” (priority 2016, published 2019)
“Also recorded” adds a separate entry of the source.

Tests used:
[1] = system: murine model of schizophrenia; assay: Prepulse inhibition (PPI) of the startle reflex in the PCP mouse model; format: in vivo, mice
Protocol: In this experimental model, a weak stimulus (74-90 dB tone) inhibited the subsequent response to a strong stimulus (120 dB tone). Reduced prepulse inhibition of the startle reflex (PPI) was taken as an index of the positive symptoms of schizophrenia (Josselyn and Vaccarino, 1998).
PPI was assessed similarly to the method described by Varty et al. In the employed model, mice were placed in a startle chamber and allowed to acclimate for 5 min. A loudspeaker produced a 65 dB background white noise or the various acoustic pre-pulse stimuli (dB): 74, 78, 82, 86, and 90 (20 ms). A 120 dB (40 ms) stimulus was given first to induce a response to startle. The response of the mouse was transduced and stored by a computer. Each test session lasted for 11 min and consisted of 5 presentations of each of the trial types presented in random order and separated by 15 second intervals. The amount of prepulse inhibition was calculated as % PPI=[1−(startle response for prepulse+pulse)/(startle response for pulse alone)]×100.
The % PPI indicates of level of disruption of the sensorimotor gating system in schizophrenia but also serves as an indicator of memory function. The % PPI after administration of PCP and treatment of BCP in the PPI test also serve as an index of memory function, further supporting the function of the sensorimotor system.

[2] = system: murine model of schizophrenia; assay: PhenoTyper cage behaviour in the PCP mouse model; format: in vivo, mice; details: BCP 5 mg/kg PND 43-61
CYP2D6 = CYP2D6 (Homo sapiens, UniProt P10635); assay: CYP450 enzymatic metabolism in human liver microsomes
CYP2D6, sequence (P10635 whole entry): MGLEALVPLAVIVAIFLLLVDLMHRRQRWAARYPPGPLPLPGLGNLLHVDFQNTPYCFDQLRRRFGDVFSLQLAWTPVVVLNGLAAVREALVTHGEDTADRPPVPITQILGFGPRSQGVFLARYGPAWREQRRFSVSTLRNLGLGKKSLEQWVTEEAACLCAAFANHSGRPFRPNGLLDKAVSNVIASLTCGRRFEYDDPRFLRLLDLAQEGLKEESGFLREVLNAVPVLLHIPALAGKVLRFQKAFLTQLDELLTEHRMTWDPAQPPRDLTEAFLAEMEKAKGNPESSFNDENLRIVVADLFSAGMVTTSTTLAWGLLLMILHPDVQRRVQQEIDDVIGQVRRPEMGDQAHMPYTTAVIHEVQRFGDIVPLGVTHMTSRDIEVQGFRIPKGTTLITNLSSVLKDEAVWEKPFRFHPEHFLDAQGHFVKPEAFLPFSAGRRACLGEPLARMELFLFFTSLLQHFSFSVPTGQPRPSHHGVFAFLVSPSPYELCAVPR
Protocol: CYP450 dependent activities were determined using a known substrate. […] A known inhibitor, such as quinidine, tested at a single concentration 3.00 μM was included as positive control. Incubation mixture containing human liver microsomes (0.1 mg/mL), substrate (5 μM) and standard inhibitor or test compound were warmed at 37 C for 10 minutes. Reactions were initiated by addition of the NADPH (1 mM) and the mixture was incubated for 20 minutes at 37° C. water bath. The organic solvent in the reaction mixture was DMSO. After incubation, ice cold acetonitrile was added to terminate the reaction. Generation of metabolite from the substrate reactions was determined by LC-MS/MS and assessed based on peak area ratios of analyte/IS. Mean was used to calculate the extent of inhibition (expressed as % of control activity).

[3] = system: murine model of schizophrenia; assay: Forced-swimming test in the PCP mouse model; format: in vivo, mice; details: PND 83; postnatal PCP 5 mg/kg; oral BCP 10 mg/kg twice a week, PND 43-62
Protocol: (§1) BCP was diluted in canola oil. BCP (10 mg/kg diluted in canola oil) was administered to adolescent mice (PND 43-62) by gavage twice a week (on Sunday and Wednesday) for 3 weeks, a total of 6 gavages. Control group and PCP-induced group received by gavage the oil vehicle.
Training was conducted for 6 min a day before the test. Each mouse was placed into a transparent glass cylinder filled with fresh water at 25° C. On the test day, the total duration/frequency of immobility and climbing was counted every 2 minutes for 6 minutes. An increased immobility is an index of learning and habituation, therefore a positive behavioral adaptation with a stressful condition.

[4] = system: murine model of schizophrenia; assay: Elevated Plus Maze test in the PCP mouse model; format: in vivo, mice
Protocol: Anxiety as measured by the paucity of time spent on the two, anxiety-provoking, open arms (as opposed to the two enclosed arms) of an “Elevated Plus Maze” was used as a parameter of negative symptoms of schizophrenia (Josselyn and Vaccarino, 1998). The plus maze was elevated 50 cm above the table top. Behavior of each mouse was recorded for 5 min by a video camera and scored using the “EthoVision” software (Noldus Information Technology, Wageningen, The Netherlands), measuring the number of entries as well as the amount of time spent in each arm, open or closed. Increased time spent in the closed arms indicated increased anxiety. Increased time spent in the opened arms indicated anxiolytic behavior (reduced stress).

[5] = system: murine model of schizophrenia; assay: Open-field test (ambulation, rearing, grooming) in the PCP mouse model
Protocol: Mice were assessed for hyperactivity behavior on postnatal day 16 (FIG. 2). Mice were placed in the center of a transparent glass cube cage 30×40 X31 cm divided into squares of 7.5×7.5 cm. The number of squares and rearing activity were counted for 8 min.
Mice were assessed for hyperactivity behavior on postnatal day 64-66. Mice were placed in the center of a transparent glass cube cage 30×40 X31 cm divided into squares of 7.5×7.5 cm. The number of squares and rearing activity were counted for 8 min.

[6] = system: murine model of schizophrenia; assay: Social interaction test in a novel environment, PCP mouse model; format: in vivo, mice; details: PND 88-89; postnatal PCP 5 mg/kg; oral BCP 10 mg/kg twice a week, PND 43-62
Protocol: as §1
Each mouse was placed in a novel cage together with a nonaggressive intruder mouse of the same species, same sex and a similar age. The interaction between the two mice was recorded for 10 minutes with EthoVision software (Noldus). Social interaction was defined by contact between the mice (tracking nose point). Reduced duration of contact behavior indicates on impairment in social interaction.

[7] = air exposed, after 5 weeks; cited from earlier work
[8] = PND 68, no PCP, BCP 5 mg/kg PND 43-61
[9] = PND 68, postnatal PCP, BCP 5 mg/kg PND 43-61
[10] = PND 106, postnatal PCP, BCP 5 mg/kg PND 43-61
[11] = age 8 weeks, postnatal BCP 10 mg/kg 1 h after PCP
[12] = PND 91, females and males, postnatal PCP
[13] = age 13 weeks, postnatal BCP 10 mg/kg 1 h after PCP
[14] = PND 17, BCP 10 mg/kg 1 h after PCP, ethanol-based vehicle
[15] = PND 35-37, postnatal BCP 10 mg/kg 1 h after PCP

Substance: trans-(1R,9S)-8-methylene-4,11,11trimethylbicyclo[7.2.0]undec-4-ene [BCP]
- pre-pulse inhibition in saline-treated mice [1, 8]: no substantial effect on saline-treated mice
- response to pre-pulse tones in saline-treated mice [1, 8]: no effect on saline-treated mice
- response to pre-pulse tones [1, 9]: significantly reversed the effect of PCP on response to pre-pulse tones; also recorded: reversed the effect of PCP on the response to tone
- startle response at the end of the PPI test [1, 9]: did not affect the response to startle at the end of the PPI test
- startle response, females [1, 9]: significantly reversed the effect of PCP on startle response in females
- startle response, males [1, 9]: no difference in the response to the startle stimuli between groups
- pre-pulse inhibition (% PPI) ([1]; PND 68, postnatal PCP, BCP 5 mg/kg injected twice a week PND 43-61): significantly reversed the effect of PCP on pre-pulse inhibition; also recorded: reversed the effect of PCP on PPI
- % pre-pulse inhibition (PPI) [1, 10]: reversed the effect of PCP on the % pre-pulse inhibition (PPI); also recorded: reversed the effect of PCP on attention at PND106 (PPI test)
- response to the startle stimuli (120 dB) [1, 10]: no difference in the response to the startle stimuli (120 dB) between groups
- response to tones [1, 10]: reversed the effect of PCP on the response to tones
- response to startle stimuli ([1]; age 8 weeks, males and females, postnatal BCP 10 mg/kg 1 h after PCP): not significantly different between groups
- % prepulse inhibition, females [1, 11]: No significant difference
- % prepulse inhibition, males [1, 11]: reversed this effect; also recorded: significantly reversed the effect of PCP on the sensorimotor-gate in males
- frequency of entries to the wheel [2, 12]: reversed the effects of PCP on the frequency of entries to the wheel in the Phenotyper cage both in females and males
- time spent in the Hidden Zone [2, 12]: reversed the effects of PCP on the time spend in the Hidden Zone of PhenoTyper cage in females and males; also recorded: reversed the effects of PCP on the time spent in the hidden zone
- time spent at the drinking zone ([2]; PND 91, compared with PCP-treated group): appeared to reduce the time spend at the drinking zone
- frequency of entries to the Hidden Zone, males ([2]; PND 91, postnatal PCP): reversed the effect of PCP in males
- time spent in the food zone ([2]; PND 91, postnatal PCP): did not affect the time spend in the food zone
- frequency of entries to the Wheel Zone ([2]; PND 105, postnatal PCP): appeared to reduce the effect of PCP on the frequency of entries to the Wheel Zone
- frequency of entries to the hidden zone ([2]; PND 105, postnatal PCP): reversed the effects of PCP on the frequency of entries to the hidden zone; also recorded: reversed the effect of PCP on frequency of entries to hidden zone
- time spent at the hidden zone ([2]; PND 105, postnatal PCP): reversed the effects of PCP on the time spend at the hidden zone; also recorded: reversed the effect of PCP on time spent at the hidden zone
- time spent in the wheel zone ([2]; PND 105, postnatal PCP): showed a trend to reverse the effect of PCP on the time spend in the wheel; also recorded: not the time spent in the wheel zone
- risperidone-induced inhibition of CYP2D6 in the presence of BCP (CYP2D6; BCP combined with risperidone at a fixed concentration equivalent to IC50, human liver microsomes): significantly reduced the risperidone-induced inhibition of CYP2D6; also recorded: blocked the effect of risperidone and restored the activity of CYP2D6 enzyme
- inhibitory effect on CYP2D6 (CYP2D6; human liver microsomes): 0-20 % inhibition
- inhibition of CYP2D6 enzymatic activity (CYP2D6; human liver microsomes 0.1 mg/mL, 20 min, 37 C): slightly inhibited CYP2D6
- duration of immobility in the forced swim test, male mice [3]: reversed the effect of 5 mg/kg PCP on the duration of immobility of male mice in the forced swim test; also recorded: reversed the effect of PCP on mice in the open field test (29A) and in the forced swim test
- plus maze open/close or open/(close+open) duration and frequency ([4]; PND 64, postnatal PCP, BCP 5 mg/kg PND 43-61): no effect at age 64; also recorded: did not reverse the effects of PCP in plus maze test
- behavior in the open arm of the Elevated Plus Maze ([4]; PND 110, postnatal PCP, BCP 5 mg/kg PND 43-61): significantly reversed the effects of PCP on behavior in the open arm of the Elevated Plus Maze
- time spent in closed arm or open arm ([4]; age 13 weeks, females and males, postnatal BCP 10 mg/kg 1 h after PCP): no significant change in the time spent in the closed arm or open arm
- time spent in distal end of the opened arm, females [4, 13]: reversed this effect
- time spent in distal end of the opened arm, males [4, 13]: reversed this effect
- behavior in the close arm of the Elevated Plus Maze ([4]; age 64 days, postnatal PCP, BCP 5 mg/kg PND 43-61): significantly reversed the effects of PCP on behavior in the close arm of the Elevated Plus Maze
- open-field rearing and exploration ([5]; PND 17, male mice, BCP 10 mg/kg 1 h after each PCP 5 mg/kg injection (Cremophor EL:DMSO:saline)): reversed the effects of PCP on rearing and exploration
- open-field ambulation and rearing ([5]; PND 17, males, BCP 10 mg/kg 1 h after PCP, DMSO-based carrier): completely reversed the effects of PCP on ambulation
- open-field ambulation and rearing, females [5, 14]: reversed a proportion of the effects of PCP on ambulation and rearing behavior of female mice
- open-field locomotor activity, males [5, 14]: appeared to be less sensitive to the treatment of PCP or PCP+BCP
- open-field rearing and exploration [5, 14]: reversed the effects of PCP on rearing and exploration
- open-field locomotor activity (ambulation), males [5, 15]: reduced locomotor activity; also recorded: significantly reversed the effect of PCP in males
- open-field rearing and exploration, females [5, 15]: no differences in rearing and exploration behaviors were seen between the different groups
- open-field rearing, males [5, 15]: significantly reduced rearing behavior as compared to vehicle and PCP-treated groups
- open-field rearing ([5]; PND 63, females and males, postnatal PCP, BCP 5 mg/kg injected twice a week PND 43-61): reversed the effect of PCP on rearing in both females and males
- open-field ambulation ([5]; PND 63, male and female, postnatal PCP, BCP 5 mg/kg injected twice a week PND 43-61): significantly reversed the effect of postnatal treatment of PCP on ambulation in male and female mice at PND 63
- open-field exploration compared with saline-treated mice ([5]; PND 63, BCP 5 mg/kg injected twice a week PND 43-61): significantly inhibited the exploration of mice compared with saline-treated mice
- open-field exploratory behavior, females ([5]; PND 104 (last BCP treatment PND 61), postnatal PCP, BCP 5 mg/kg PND 43-61): relapse in exploratory behavior was evident
- self-grooming (total, without stimuli) ([5]; PND 104, females or males, postnatal PCP, BCP 5 mg/kg PND 43-61): did not reverse the effect of PCP on self-grooming; also recorded: did not reverse the effect of PCT on grooming at PND104
- open-field rearing (and exploration), males ([5]; PND 104, postnatal PCP, BCP 5 mg/kg PND 43-61): still significantly higher than that of PCP-treated mice with no BCP treatment; also recorded: improved exploration and rearing behaviors of male PCP treated mice at PND 104
- activity in the open field test, female mice ([5]; postnatal PCP 5 mg/kg, BCP 10 mg/kg in canola oil by gavage twice a week, PND 43-62): reversed the effect of 5 mg/kg PCP on activity of female mice in the open field test
- social interaction, male mice [6]: reversed the effect of 5 mg/kg PCP on social interaction of male mice in the social interaction test
- original compound consumed by autoxidation [7]: ~50%
